Consider 4 molecules from publication PMC7584652 (Nature Communications, 2020).

Data set [1] has as its target T1, Rel (RelA) (Bacillus subtilis, UniProt O54408).
T1 construct: purified
The data set is described as follows: […] TLC hydrolysis time course. Conditions: 200 nM enzyme, 100 μM substrate, 25 mM Tris-HCl pH 7.5, 1 mM MnCl2, 37 °C. It counts as biochemical.

In data set [2] the target is Xpt (Bacillus anthracis, UniProt Q81SQ5). As to conditions: labelled compound ([5′-α-32P]); 10 mM Tris pH 7.5, 100 mM NaCl, 5 mM MgCl2, room temperature.
Sequence of Xpt (Q81SQ5 whole entry, looked up): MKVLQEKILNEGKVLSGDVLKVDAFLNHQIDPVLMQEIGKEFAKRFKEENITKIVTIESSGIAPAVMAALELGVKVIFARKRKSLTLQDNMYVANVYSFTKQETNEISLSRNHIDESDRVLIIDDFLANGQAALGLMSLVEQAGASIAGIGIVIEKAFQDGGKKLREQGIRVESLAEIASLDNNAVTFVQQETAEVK
Data set [3] has as its target Hpt1 (Bacillus anthracis, UniProt A0A6L7HDS1). Conditions: labelled compound ([5′-α-32P]); 10 mM Tris pH 7.5, 100 mM NaCl, 5 mM MgCl2, room temperature.
For data set [4], the target named is Gmk (Bacillus anthracis, UniProt Q81WG7). It counts as binding.
Sequence of Gmk (Q81WG7 whole entry, looked up): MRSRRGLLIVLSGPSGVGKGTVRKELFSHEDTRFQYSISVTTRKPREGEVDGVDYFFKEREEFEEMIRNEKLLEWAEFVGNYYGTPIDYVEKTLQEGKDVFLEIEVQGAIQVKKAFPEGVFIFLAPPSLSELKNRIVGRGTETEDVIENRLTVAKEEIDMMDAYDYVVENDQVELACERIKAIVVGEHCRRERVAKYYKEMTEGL
Data set [5] addresses Der (Bacillus anthracis, UniProt Q81SW9). As to conditions: labelled compound ([5′-α-32P]); 10 mM Tris pH 7.5, 100 mM NaCl, 5 mM MgCl2, room temperature.
Data set [6] has as its target Obg (Bacillus anthracis, UniProt Q81LF0). The data set is described as follows: biochemical.
Data set [7] has as its target T2, translation elongation factor G (EF-G) (Bacillus anthracis, UniProt Q81VT3).
T2 construct: gene fusA
The data set is described as follows: biochemical.

Substrate in data set [8]: Nc1nc2c(ncn2[C@@H]2O[C@H](COP(=O)(O)OP(=O)(O)O)[C@@H](OP(=O)(O)OP(=O)(O)O)[C@H]2O)c(=O)[nH]1
Nature of the data set: purified protein. As to conditions: 100 nM enzyme, 40 mM Tris-HCl pH 7.5, 100 mM NaCl, 10 mM MgCl2, 37 °C, Hill n fixed to 1.

Substrate in data set [9]: Nc1nc2c(ncn2[C@@H]2O[C@H](COP(=O)(O)OP(=O)(O)OP(=O)(O)O)[C@@H](OP(=O)(O)OP(=O)(O)O)[C@H]2O)c(=O)[nH]1
The data set is described as follows: purified protein. Conditions: 100 nM enzyme, 40 mM Tris-HCl pH 7.5, 100 mM NaCl, 10 mM MgCl2, 37 °C, cooperative, fitted with Hill equation.

Broadly, the Kd is the free concentration of one partner at which half of the binding sites on the other are occupied at equilibrium, for simple one-to-one binding. The term Km denotes the substrate concentration at which the rate is half of its maximum. By kcat is commonly meant the number of substrate molecules converted per active site and unit of time at saturation.

T1 sequence (O54408 whole entry): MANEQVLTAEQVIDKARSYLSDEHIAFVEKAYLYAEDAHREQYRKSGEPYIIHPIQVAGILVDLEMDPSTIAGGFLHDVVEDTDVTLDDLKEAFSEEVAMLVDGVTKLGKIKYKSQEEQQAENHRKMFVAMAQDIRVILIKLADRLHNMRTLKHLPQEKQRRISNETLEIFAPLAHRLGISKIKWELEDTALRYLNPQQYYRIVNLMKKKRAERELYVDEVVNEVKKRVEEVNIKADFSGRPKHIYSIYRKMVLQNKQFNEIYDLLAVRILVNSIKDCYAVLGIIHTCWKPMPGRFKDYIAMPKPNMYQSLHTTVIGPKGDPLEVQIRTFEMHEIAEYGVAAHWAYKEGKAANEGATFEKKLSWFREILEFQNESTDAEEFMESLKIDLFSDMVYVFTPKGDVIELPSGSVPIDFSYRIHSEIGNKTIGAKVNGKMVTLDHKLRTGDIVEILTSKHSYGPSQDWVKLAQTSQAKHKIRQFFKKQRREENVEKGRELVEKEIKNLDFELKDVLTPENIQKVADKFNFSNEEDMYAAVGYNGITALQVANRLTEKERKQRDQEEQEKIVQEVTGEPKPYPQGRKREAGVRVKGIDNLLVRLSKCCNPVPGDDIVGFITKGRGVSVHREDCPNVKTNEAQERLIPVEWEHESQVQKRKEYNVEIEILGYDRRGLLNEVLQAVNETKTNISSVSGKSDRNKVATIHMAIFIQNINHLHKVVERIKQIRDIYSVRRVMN
T2 sequence (Q81VT3 whole entry, looked up): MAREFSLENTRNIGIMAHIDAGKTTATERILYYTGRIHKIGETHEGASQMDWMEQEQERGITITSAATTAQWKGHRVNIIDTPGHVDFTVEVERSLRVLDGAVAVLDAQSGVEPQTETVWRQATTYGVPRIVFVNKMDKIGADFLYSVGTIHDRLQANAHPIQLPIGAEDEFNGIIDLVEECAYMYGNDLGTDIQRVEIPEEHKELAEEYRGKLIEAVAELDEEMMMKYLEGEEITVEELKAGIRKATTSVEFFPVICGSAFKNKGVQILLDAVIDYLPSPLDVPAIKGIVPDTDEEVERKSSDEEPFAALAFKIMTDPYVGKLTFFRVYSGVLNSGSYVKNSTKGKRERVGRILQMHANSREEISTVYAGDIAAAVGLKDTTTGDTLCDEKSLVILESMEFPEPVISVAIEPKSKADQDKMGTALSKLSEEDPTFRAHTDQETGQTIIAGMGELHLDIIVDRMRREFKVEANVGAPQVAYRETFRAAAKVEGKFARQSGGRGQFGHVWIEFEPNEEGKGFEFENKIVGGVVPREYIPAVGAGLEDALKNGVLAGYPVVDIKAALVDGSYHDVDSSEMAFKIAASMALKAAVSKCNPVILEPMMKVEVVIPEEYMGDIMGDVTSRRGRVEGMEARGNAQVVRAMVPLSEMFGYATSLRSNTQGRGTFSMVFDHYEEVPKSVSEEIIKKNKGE
Sequence of Obg (Q81LF0 whole entry, looked up): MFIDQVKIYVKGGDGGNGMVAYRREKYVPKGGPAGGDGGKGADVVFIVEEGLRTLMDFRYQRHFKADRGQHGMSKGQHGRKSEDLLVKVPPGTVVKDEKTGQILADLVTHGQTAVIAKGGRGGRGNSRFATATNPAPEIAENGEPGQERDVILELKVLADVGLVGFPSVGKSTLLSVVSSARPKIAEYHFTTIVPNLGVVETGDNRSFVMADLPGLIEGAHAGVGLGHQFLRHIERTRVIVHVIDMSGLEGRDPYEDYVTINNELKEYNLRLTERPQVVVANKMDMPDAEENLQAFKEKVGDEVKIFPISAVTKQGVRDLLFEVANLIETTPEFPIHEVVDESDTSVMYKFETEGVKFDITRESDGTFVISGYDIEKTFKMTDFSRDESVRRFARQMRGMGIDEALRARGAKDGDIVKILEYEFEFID
Sequence of Hpt1 (A0A6L7HDS1 1-180): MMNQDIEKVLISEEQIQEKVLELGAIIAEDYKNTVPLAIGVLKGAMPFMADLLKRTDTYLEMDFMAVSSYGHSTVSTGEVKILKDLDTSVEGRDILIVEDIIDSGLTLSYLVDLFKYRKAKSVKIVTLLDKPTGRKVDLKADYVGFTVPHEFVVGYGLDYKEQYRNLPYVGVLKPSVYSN
Sequence of Der (Q81SW9 whole entry, looked up): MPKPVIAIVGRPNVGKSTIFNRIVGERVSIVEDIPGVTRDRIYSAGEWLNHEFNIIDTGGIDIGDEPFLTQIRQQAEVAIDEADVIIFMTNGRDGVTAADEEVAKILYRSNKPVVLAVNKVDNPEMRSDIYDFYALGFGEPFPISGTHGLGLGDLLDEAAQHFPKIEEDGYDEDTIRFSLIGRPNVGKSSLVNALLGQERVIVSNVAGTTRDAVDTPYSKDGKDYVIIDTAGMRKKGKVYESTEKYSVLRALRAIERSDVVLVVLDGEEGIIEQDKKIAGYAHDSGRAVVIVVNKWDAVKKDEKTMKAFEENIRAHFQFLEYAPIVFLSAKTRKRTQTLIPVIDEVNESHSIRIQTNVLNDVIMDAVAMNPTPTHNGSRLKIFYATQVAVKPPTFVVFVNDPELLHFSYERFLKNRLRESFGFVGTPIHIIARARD

With `Nc1nc2c(ncn2[C@@H]2O[C@H](COP(=O)(O)O)[C@@H](OP(=O)(O)OP(=O)(O)O)[C@H]2O)c(=O)[nH]1` [pGpp, guanosine-5′-monophosphate-3′-diphosphate], the “32P TLC hydrolysis time course” value in data set [1] is “pGpp was hydrolyzed more rapidly than (p)ppGpp”. Further, the “DRaCALA, 1 μM purified protein” value was “confirmed strong pGpp binding to guanosine nucleotide synthesis proteins (Hpt1, Gmk, and Xpt)” in data set [2]; “confirmed strong pGpp binding to guanosine nucleotide synthesis proteins (Hpt1, Gmk, and Xpt)” in data set [3]; “confirmed strong pGpp binding to guanosine nucleotide synthesis proteins (Hpt1, Gmk, and Xpt)” in data set [4].
For `Nc1nc2c(ncn2[C@@H]2O[C@H](COP(=O)(O)OP(=O)(O)O)[C@@H](OP(=O)(O)OP(=O)(O)O)[C@H]2O)c(=O)[nH]1` [ppGpp], in data set [5], the “DRaCALA, 1 μM purified protein” value is recorded as “GTPases involved in ribosome biogenesis (HflX, Obg, Der) bind ppGpp but not pGpp”. The Kd was found to be 6 ± 2 µM in data set [6] and 60 ± 8 µM in data set [7]. In addition, the “32P TLC hydrolysis time course” value in [1] is on record as “all three nucleotides can be hydrolyzed efficiently by Rel”.
For `Nc1nc2c(ncn2[C@@H]2O[C@H](COP(=O)(O)OP(=O)(O)OP(=O)(O)O)[C@@H](OP(=O)(O)OP(=O)(O)O)[C@H]2O)c(=O)[nH]1` [pppGpp], the Kd in data set [6] was found to be 48 ± 7 µM; in [7], 296 ± 50 µM.

B1: NahA (YvcI) (Bacillus subtilis subsp. subtilis str. 168) (protein)
chain: MTYLQRVTNCVLQTDDKVLLLQKPRRGWWVAPGGKMESGESVRDSVIREYREETGIYIINPQLKGVFTFIIKDGDHIVSEWMMFTFVADSYTGQNVSESEEGKLQWHDVNDIQNLPMAPGDGHILDFMMKGQGLLHGTFTYTPEFELLSYRLDPQHIK
Turning to B1, in [8], the Km came to 7.5 ± 2.3 µM and the kcat was determined as 1.22 ± 0.17 s⁻¹. In data set [9], the K0.5 worked out at 177.4 ± 0.4 µM and the kcat came out at 10 ± 0.5 s⁻¹.
